Key:
[1] = test system: staphylococcus epidermidis biofilm; assay: staphylococcus epidermidis biofilm, optical density reading of turbidity; assay type: cell-based; conditions: 490 nm
Procedure: (§1) Up to 8 different antibiotics or biocides can be tested by using 1 row (A-H) for each antimicrobial reagent. […] Rinse the remaining projections in PBS using a troughed vessel 20 and place the colonized projections into the 96 well antibiotic plate and incubate overnight at 37° C. […] (3) From the freshly sonicated plate remove 0.02 ml of the medium from each well and spot plate neat; and 0.025 ml from each well to prepare a serial dilution (10^−1 to 10^−6) and spot plate 0.02 ml (dilutions can be done in microtiter plates, one for each antibiotic). Place the plate containing the remaining medium and bacteria to incubate at 37° C., overnight. Day 4: Assay the sessile survival, by for example reading the plate incubated overnight at 490 nm or by counting the colonies on the plates to determine the actual number of surviving bacteria, or by using some other method known in the art.

Escherichia coli biofilm [2] = assay: Escherichia coli biofilm, optical density reading of turbidity; assay type: cell-based; conditions: 490 nm
Procedure: as §1

[3] = test system: staph. aureus planktonic bacteria; assay: staph. aureus planktonic bacteria, optical density reading of turbidity; assay type: cell-based, staphylococcus aureus; conditions: 490 nm
Procedure: (§2) Up to 8 different antibiotics or biocides can be tested by using 1 row (A-H) for each antimicrobial reagent. […] Rinse the remaining projections in PBS using a troughed vessel 20 and place the colonized projections into the 96 well antibiotic plate and incubate overnight at 37° C.

[4] = test system: Escherichia coli planktonic bacteria; assay: Escherichia coli planktonic bacteria, optical density reading of turbidity; assay type: cell-based; conditions: 490 nm
Procedure: as §2

Escherichia coli biofilm [5] = assay: Escherichia coli biofilm on projections, antibiotic treatment, manual cfu count; assay type: cell-based
Procedure: (§3) Up to 8 different antibiotics or biocides can be tested by using 1 row (A-H) for each antimicrobial reagent. […] Rinse the remaining projections in PBS using a troughed vessel 20 and place the colonized projections into the 96 well antibiotic plate and incubate overnight at 37° C. […] (3) From the freshly sonicated plate remove 0.02 ml of the medium from each well and spot plate neat; and 0.025 ml from each well to prepare a serial dilution (10^−1 to 10^−6) and spot plate 0.02 ml (dilutions can be done in microtiter plates, one for each antibiotic). Place the plate containing the remaining medium and bacteria to incubate at 37° C., overnight. Day 4: Assay the sessile survival, by for example reading the plate incubated overnight at 490 nm or by counting the colonies on the plates to determine the actual number of surviving bacteria, or by using some other method known in the art. Several different conventional methods may be used to count the bacteria. It may be done by incubating the sonicated bacteria, taking serial dilutions and visually counting the colony forming units, or automated methods may be used, as for example using an optical reader to determine optical density. […] In the case of using vital dye technology, the biofilm need not be further incubated. In a further embodiment, the assay may be carried out by sonicating the cells until they lyse and release ATP and then adding luciferase to produce a mechanically readable light output. In a still further embodiment, the assay may be carried out directly on the biofilm on the projections using a confocal microscope, although it should be considered that this is difficult to automate. […] Examples are given to show a comparison between counts of planktonic bacteria and counts of sessile bacteria for the same growth conditions. […] The initial biofilm was colonized for four hours. The antibiotic was applied to the wells 2-12 of the rows A-H of a 96 well plate as follows: well 2: no antibiotic, well 3: 1000 μg/mL, well 4: 500 μg/mL . . . well 12: 2 μg/mL. 250 μL final volume of diluted antibiotic was applied to the wells.

[6] = test system: staphylococcus epidermidis planktonic bacteria; assay: staphylococcus epidermidis planktonic bacteria, optical density reading of turbidity; assay type: cell-based; conditions: 490 nm
Procedure: as §2

[7] = test system: staphylococcus aureus biofilm; assay: staphylococcus aureus biofilm on projections, antibiotic treatment, manual cfu count; assay type: cell-based
Procedure: as §3, with “dilution (10^-1” for “dilution (10^−1”, “to 10^-6)” for “to 10^−6)”, “The” for “The initial biofilm was colonized for four hours. The”, “rows A-G” for “rows A-H”, “μg/mL.” for “μg/mL. 250 μL final volume of diluted antibiotic was applied to the wells.”

staph. aureus biofilm = assay: staph. aureus biofilm, optical density reading of turbidity; assay type: cell-based, staphylococcus aureus; conditions: 490 nm
Procedure: as §1

[8] = well 5 of doubling dilutions, well 3: 1000 μg/mL to well 12: 2 μg/mL
[9] = well 6 of doubling dilutions, well 3: 1000 μg/mL to well 12: 2 μg/mL ([…] implied)
[10] = well 7 of doubling dilutions, well 3: 1000 μg/mL to well 12: 2 μg/mL
[11] = well 8 of doubling dilutions, well 3: 1000 μg/mL to well 12: 2 μg/mL
[12] = well 9 of doubling dilutions, well 3: 1000 μg/mL to well 12: 2 μg/mL
[13] = well 10 of doubling dilutions, well 3: 1000 μg/mL to well 12: 2 μg/mL ([…] implied)
[14] = well 11 of doubling dilutions, well 3: 1000 μg/mL to well 12: 2 μg/mL
[15] = well 3: 1000 μg/mL antibiotic, biofilm colonized four hours
[16] = well 4: 500 μg/mL antibiotic, biofilm colonized four hours

SMILES: CC(C)(O/N=C(\C(=O)N[C@@H]1C(=O)N2C(C(=O)[O-])=C(C[n+]3ccccc3)CS[C@H]12)c1csc(N)n1)C(=O)O [F, ceftazidine]
- optical density reading of turbidity, staphylococcus epidermidis biofilm ([1]; well 3: 1000 μg/mL antibiotic): .897
- optical density reading of turbidity, staphylococcus epidermidis biofilm ([1]; well 4: 500 μg/mL antibiotic): .888
- optical density reading of turbidity, staphylococcus epidermidis biofilm [1, 8]: 1.013
- optical density reading of turbidity, staphylococcus epidermidis biofilm [1, 9]: .855
- optical density reading of turbidity, staphylococcus epidermidis biofilm [1, 10]: .992
- optical density reading of turbidity, staphylococcus epidermidis biofilm [1, 11]: .903
- optical density reading of turbidity, staphylococcus epidermidis biofilm [1, 12]: .920
- optical density reading of turbidity, staphylococcus epidermidis biofilm [1, 13]: .850
- optical density reading of turbidity, staphylococcus epidermidis biofilm [1, 14]: .843
- optical density reading of turbidity, staphylococcus epidermidis biofilm ([1]; well 12: 2 μg/mL antibiotic): .902
- optical density reading of turbidity, Escherichia coli biofilm (Escherichia coli biofilm [2]; well 3: 1000 μg/mL antibiotic): .121
- optical density reading of turbidity, Escherichia coli biofilm (Escherichia coli biofilm [2]; well 4: 500 μg/mL antibiotic): .123
- optical density reading of turbidity, Escherichia coli biofilm (Escherichia coli biofilm [2]; [8]): 1.158
- optical density reading of turbidity, Escherichia coli biofilm (Escherichia coli biofilm [2]; [9]): .121
- optical density reading of turbidity, Escherichia coli biofilm (Escherichia coli biofilm [2]; [11]): .120
- optical density reading of turbidity, Escherichia coli biofilm (Escherichia coli biofilm [2]; [12]): .123
- optical density reading of turbidity, Escherichia coli biofilm (Escherichia coli biofilm [2]; [13]): 1.152
- optical density reading of turbidity, Escherichia coli biofilm (Escherichia coli biofilm [2]; [14]): 1.249
- optical density reading of turbidity, Escherichia coli biofilm (Escherichia coli biofilm [2]; well 12: 2 μg/mL antibiotic): 1.268
- optical density reading of turbidity, staph. aureus planktonic bacteria ([3]; well 3: 1000 μg/mL antibiotic): .073
- optical density reading of turbidity, staph. aureus planktonic bacteria ([3]; well 4: 500 μg/mL antibiotic): .076
- optical density reading of turbidity, staph. aureus planktonic bacteria [3, 8]: .081
- optical density reading of turbidity, staph. aureus planktonic bacteria [3, 9]: .079
- optical density reading of turbidity, staph. aureus planktonic bacteria [3, 10]: .076
- optical density reading of turbidity, staph. aureus planktonic bacteria [3, 11]: .079
- optical density reading of turbidity, staph. aureus planktonic bacteria [3, 12]: .078
- optical density reading of turbidity, staph. aureus planktonic bacteria [3, 13]: .111
- optical density reading of turbidity, staph. aureus planktonic bacteria [3, 14]: .564
- optical density reading of turbidity, staph. aureus planktonic bacteria ([3]; well 12: 2 μg/mL antibiotic): .717
- optical density reading of turbidity, Escherichia coli planktonic bacteria ([4]; well 3: 1000 μg/mL antibiotic): .123
- optical density reading of turbidity, Escherichia coli planktonic bacteria ([4]; well 4: 500 μg/mL antibiotic): .129
- optical density reading of turbidity, Escherichia coli planktonic bacteria [4, 8]: .134
- optical density reading of turbidity, Escherichia coli planktonic bacteria [4, 9]: .137
- optical density reading of turbidity, Escherichia coli planktonic bacteria [4, 10]: .128
- optical density reading of turbidity, Escherichia coli planktonic bacteria [4, 11]: .137
- optical density reading of turbidity, Escherichia coli planktonic bacteria [4, 12]: .137
- optical density reading of turbidity, Escherichia coli planktonic bacteria [4, 13]: .140
- optical density reading of turbidity, Escherichia coli planktonic bacteria [4, 14]: .147
- optical density reading of turbidity, Escherichia coli planktonic bacteria ([4]; well 12: 2 μg/mL antibiotic): .152
- manually counted cfu, Escherichia coli biofilm (Escherichia coli biofilm [5]; [15]): 0 cfu
- manually counted cfu, Escherichia coli biofilm (Escherichia coli biofilm [5]; [16]): 0 cfu
- manually counted cfu, Escherichia coli biofilm (Escherichia coli biofilm [5]; [8]): 0 cfu
- manually counted cfu, Escherichia coli biofilm (Escherichia coli biofilm [5]; [9]): 0 cfu
- manually counted cfu, Escherichia coli biofilm (Escherichia coli biofilm [5]; [10]): 0 cfu
- manually counted cfu, Escherichia coli biofilm (Escherichia coli biofilm [5]; [11]): 0 cfu
- manually counted cfu, Escherichia coli biofilm (Escherichia coli biofilm [5]; [12]): 0 cfu
- optical density reading of turbidity, staphylococcus epidermidis planktonic bacteria ([6]; well 3: 1000 μg/mL antibiotic): .359
- optical density reading of turbidity, staphylococcus epidermidis planktonic bacteria ([6]; well 4: 500 μg/mL antibiotic): .383
- optical density reading of turbidity, staphylococcus epidermidis planktonic bacteria [6, 8]: .397
- optical density reading of turbidity, staphylococcus epidermidis planktonic bacteria [6, 9]: .410
- optical density reading of turbidity, staphylococcus epidermidis planktonic bacteria [6, 10]: .466
- optical density reading of turbidity, staphylococcus epidermidis planktonic bacteria [6, 11]: .540
- optical density reading of turbidity, staphylococcus epidermidis planktonic bacteria [6, 12]: .615
- optical density reading of turbidity, staphylococcus epidermidis planktonic bacteria [6, 13]: .627
- optical density reading of turbidity, staphylococcus epidermidis planktonic bacteria [6, 14]: .694
- optical density reading of turbidity, staphylococcus epidermidis planktonic bacteria ([6]; well 12: 2 μg/mL antibiotic): .853
- manually counted cfu, staphylococcus aureus biofilm ([7]; well 3: 1000 μg/mL antibiotic): 0 cfu
- manually counted cfu, staphylococcus aureus biofilm ([7]; well 4: 500 μg/mL antibiotic): 1.0 × 10^2 cfu
- manually counted cfu, staphylococcus aureus biofilm [7, 8]: 0 cfu
- manually counted cfu, staphylococcus aureus biofilm [7, 9]: 1.0 × 10^2 cfu
- manually counted cfu, staphylococcus aureus biofilm [7, 10]: 50 cfu
- manually counted cfu, staphylococcus aureus biofilm [7, 11]: 0 cfu
- manually counted cfu, staphylococcus aureus biofilm [7, 12]: 0 cfu
- manually counted cfu, staphylococcus aureus biofilm [7, 13]: 1.0 × 10^5 cfu
- manually counted cfu, staphylococcus aureus biofilm [7, 14]: 4.0 × 10^5 cfu
- manually counted cfu, staphylococcus aureus biofilm ([7]; well 12: 2 μg/mL antibiotic): 9.0 × 10^5 cfu
- optical density reading of turbidity, staph. aureus biofilm (staph. aureus biofilm; well 3: 1000 μg/mL antibiotic): .779
- optical density reading of turbidity, staph. aureus biofilm (staph. aureus biofilm; well 4: 500 μg/mL antibiotic): .830
- optical density reading of turbidity, staph. aureus biofilm (staph. aureus biofilm; [8]): .777
- optical density reading of turbidity, staph. aureus biofilm (staph. aureus biofilm; [9]): .739
- optical density reading of turbidity, staph. aureus biofilm (staph. aureus biofilm; [10]): .719
- optical density reading of turbidity, staph. aureus biofilm (staph. aureus biofilm; [11]): .840
- optical density reading of turbidity, staph. aureus biofilm (staph. aureus biofilm; [12]): .806
- optical density reading of turbidity, staph. aureus biofilm (staph. aureus biofilm; [13]): .882
- optical density reading of turbidity, staph. aureus biofilm (staph. aureus biofilm; [14]): .924
- optical density reading of turbidity, staph. aureus biofilm (staph. aureus biofilm; well 12: 2 μg/mL antibiotic): .916

SMILES: O=C(O)c1cn(C2CC2)c2cc(N3CCNCC3)c(F)cc2c1=O [G, Ciprofloxacin]
- manually counted cfu, Escherichia coli biofilm (Escherichia coli biofilm [5]; [15]): 0 cfu
- manually counted cfu, Escherichia coli biofilm (Escherichia coli biofilm [5]; [16]): 0 cfu
- manually counted cfu, Escherichia coli biofilm (Escherichia coli biofilm [5]; [8]): 0 cfu
- manually counted cfu, Escherichia coli biofilm (Escherichia coli biofilm [5]; [9]): 0 cfu
- manually counted cfu, Escherichia coli biofilm (Escherichia coli biofilm [5]; [10]): 0 cfu
- manually counted cfu, Escherichia coli biofilm (Escherichia coli biofilm [5]; [11]): 0 cfu
- manually counted cfu, Escherichia coli biofilm (Escherichia coli biofilm [5]; [13]): 0 cfu
- manually counted cfu, Escherichia coli biofilm (Escherichia coli biofilm [5]; [14]): 0 cfu
- manually counted cfu, staphylococcus aureus biofilm ([7]; well 3: 1000 μg/mL antibiotic): 0 cfu
- manually counted cfu, staphylococcus aureus biofilm ([7]; well 4: 500 μg/mL antibiotic): 0 cfu
- manually counted cfu, staphylococcus aureus biofilm [7, 8]: 0 cfu
- manually counted cfu, staphylococcus aureus biofilm [7, 9]: 50 cfu
- manually counted cfu, staphylococcus aureus biofilm [7, 10]: 1.0 × 10^2 cfu
- manually counted cfu, staphylococcus aureus biofilm [7, 11]: 50 cfu
- manually counted cfu, staphylococcus aureus biofilm [7, 12]: 0 cfu
- manually counted cfu, staphylococcus aureus biofilm [7, 13]: 0 cfu
- manually counted cfu, staphylococcus aureus biofilm [7, 14]: 0 cfu
- manually counted cfu, staphylococcus aureus biofilm ([7]; well 12: 2 μg/mL antibiotic): 0 cfu

Source: patent US7041470B2, “Method of assaying the susceptibility of biofilms to anti-microbial agents” (University Technologies International, Inc., priority 1996, dated 2006)
